Measured values as given in patent publication US7115623B2, “PDE IV inhibitors” (Aska Pharmaceuticals Co., Ltd., priority 2001, dated 2006).

Experiments:
Male Marshall ferrets = test: Emetic action; type: in vivo; details: oral, observed within 12 hours, dose = ED50 of Assay Example 2
Description: Male Marshall ferrets (each group consisting of 3 animals) as used herein fasted overnight. On the next day, a suspension of each test compound in 0.5% CMC—Na solution was administered orally to the animals. […] Next, each maximum tolerance dose against emesis was obtained. SB207499 was used for the reference compound in this assay.

[1] = test system: PDE IV isozymes separated from U937 culture cells; test: PDE IV inhibition ([3H]-cAMP hydrolysis); type: biochemical; details: cAMP 1 μM as substrate, 30° C., 20 minutes, Probit method
Description: PDE IV isozymes as used herein were separated from U937 culture cells by using an anion exchange chromatography. Type IV PDE isozyme was admixed with ethylene glycol (EG) to adjust the final EG concentration to 30%, then stored at −20° C. and diluted when used. The enzymatic activity for PDE IV was measured using cAMP as a substrate.
Each test compound was dissolved in DMSO to adjust the final concentration to 1% (2.5 μl/tube). Incubation buffer solution (pH7.5): • Tris-HCl (50 mM), magnesium chloride (6 mM), dithiothreitol (2.5 mM), 5-nucleotidase (4 μg/ml), bovine serum albumin (0.23 mg/ml), and cAMP (1 μM).
A mixture of the aforementioned test compound solution and the buffer solution was incubated at 30° C. for 20 minutes. The reaction was quenched by admixing with 1 ml of anion exchange resin slurry (AG1-X8, 200–400 meshes, chloride form; Bio-Rad) to absorb unreacted substrates. After the reaction stopped, the mixture was centrifuged at 800×g for 10 minutes, and the resulting supernatant was collected with vials in 250 μl aliquots. To each vial was added 5 ml of ACS-II (scintillator, Amersham). The radioactivity was measured with a liquid scintillator counter for [^3H]-adenosine and set as the PDE IV activity.

[2] = test system: actively sensitized guinea pigs; test: Inhibition of antigen-induced immediate asthmatic response (airway resistance, Konzett-Rossler method); type: in vivo, Male Hartley outbred guinea pigs; details: Cavia porcellus; orally, 60 minutes prior to antigen-challenge, ovalbumin-sensitized guinea pigs, Probit method
Description: Male Hartley outbred guinea pigs were sensitized by administering intraperitoneally physiological saline (0.5 ml) containing ovalbumin (1 mg, antigen) and 5×10^9 inactivated Bordetella pertussis dead cells (adjuvant). Eleven to thirteen days after the first sensitization, 0.05 ml of an ovalbumin solution (1 mg/ml) (ovalbumin is dissolved in physiological saline) was administered to the lateroabdominal region of each guinea pig intracutaneously. An establishment of sensitization was checked relying on cutaneous reaction. Only guinea pigs wherein significant reddening responses occurred 5 to 10 minutes later were employed in the next measurement test for airway resistance.
The guinea pigs (3 animals per group) actively sensitized in the above step (1) were employed to measure for their airway pressure according to Konzett-Rossler method (Arch. Exp. Path. Pharmakol., 195, 71 (1940)).
Thirteen days after the final sensitization, guinea pigs fasted overnight, and were on the next day anesthetized with a pentobarbital solution (30 mg/1.2 ml/kg, dissolved in physiological saline, intraperitoneal administration). After the guinea pigs were fixed in a supine position, their trachea was incised followed by insertion with one port of a 4-port cannula. Among the remaining 3 ports, 2 ports were connected to an artificial respirator (Model 683, Harvard). The animals were ventilated with 10 ml/kg of air per ventilation at a rate of 60 beats/min via the artificial respirator from the cannula. One port remainder was connected to a respiratory amplifier (AR-601G, Nihon Kohden, Japan) via an airflow resistance tube (TV-241T, Nihon Kohden, Japan) and a differential pressure transducer (TP-602T, Nihon Kohden, Japan) connected with a control box (RY-111S, Nihon Kohden, Japan). From a catheter inserted into a left carotid artery, blood pressures were monitored with a blood pressure measurement unit (AP641G, NEC Corp., Japan) via a blood pressure transducer (TP-300T, Nihon Kohden, Japan), and heart rates were recorded on a thermal recorder (WT-685G, Nihon Kohden, Japan), relying on blood pressure pulse waves after being led to a cardiograph unit (AT601G, Nihon Kohden, Japan).
After airway pressure became stable, an ovalbumin solution. (1 mg/ml, dissolved in physiological saline) was administered at a dose of 1 ml/kg via a tube with which the right jugular vein of guinea pigs was cannulated.
Each test compound was suspended in 0.5% CMC—Na solution and administered orally with an oral sound at a dose of 0.03 to 20 mg/2 ml/kg 60 minutes prior to the antigen-challenge. Control groups received only 0.5% CMC—Na solution in an equivalent amount. The pentobarbital-anesthetization and tracheal incision were conducted 30 minutes prior to the antigen-challenge.
Each percent reduction of increase in airway resistance (each test compound-administered group versus control group) was calculated according to the equation given below. ED50 was obtained by Probit method.

ICR mice = test: Toxicology study; type: in vivo; details: oral 300 mg/10 ml/kg
Description: Each Compound (Example Nos. 7 and 8) was administered orally to ICR mice (7 animals per group) as a test compound. […] Each test compound was suspended in 0.5% CMC—Na solution and given orally to the animal at a dose of 300 mg/10 ml/kg.

TNF-α production = test: Inhibition of TNF-α production in galactosamine- and LPS-stimulation; type: in vivo, C3H/HeN mice; details: Mus musculus; oral, 1 hour before i.v. galactosamine 800 mg/kg and LPS 5 μg/kg; serum TNF-α by ELISA 1 hour later
Description: A suspension of each test compound in 0.5% CMC—Na solution was administered orally to C3H/HeN mice at a dose of 0.10 to 10 mg/kg. One hour later, the animals received intravenously galactosamine at a dose of 800 mg/kg and LPS at a dose 5 μg/kg to raise the induction of TNF-α production. One hour later after the galactosamine- and LPS-administration, amounts of TNF-α in serum samples were measured by ELISA.

SMILES: Nc1cccc(-n2c(=O)c(CCCc3ccncc3)cc3cccnc32)c1 [Example No. 7, 1-(3-Aminophenyl)-3-[3-(pyridin-4-yl)propyl]-1,8-naphthyridin-2(1H)-one]
- Emetic actions at asthmatic response-inhibitory ED50 level (Male Marshall ferrets): no observation for emetic actions
- IC50 [1]: 0.23 µM
- ED50 [2]: 1.1 mg/kg
- Body weight gain (ICR mice): No reduction of body weight gains was observed
- Mortality (ICR mice): None of the animals were died
- Other parameters (general health conditions) (ICR mice): no abnormality was observed
- ED50 (TNF-α production): 0.45 mg/kg
